Among the test systems are KM12 colon; UO-31 renal; OVCAR-4 ovarian; SW-620 colon; OVCAR-5 ovarian; MALME-3M melanoma; SF-268 CNS; PC-3 prostate; MDA-MB-435; MDA-MB-231 breast.
Common to all, as to experiment: DTP human tumour cell line panel, 48 h

Each structure is given as a SMILES string.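 Protocol summary: plate cells (96-well), add compound at 5 concentrations, incubate 48 h, interpolate endpoints linearly. The concentration for full growth arrest is given as TGI.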 A value given as a limit tells only on which side of the number the result lay.

For orientation: TGI means the concentration at which net growth stops. On to `O=C1O[C@@H](c2ccccc2)C[C@@H]1CN1CCOCC1`, for which the TGI in the assay with KM12 colon, in the assay on UO-31 renal, in the assay with OVCAR-4 ovarian, in the assay on SW-620 colon, in the assay with OVCAR-5 ovarian and in the assay on MALME-3M melanoma was over 100 µM in each case. In the assay on SF-268 CNS, the concentration for total growth inhibition (TGI) was over 100 µM.
For `CC(C)(C)OC(=O)NC(C)(C)C(=O)NCCC(=O)O`, the TGI with KM12 colon, in the assay on UO-31 renal, in the assay on PC-3 prostate, in the assay with MDA-MB-435, in the assay with OVCAR-4 ovarian and in the assay on SW-620 colon was over 100 µM throughout. Also, the TGI with MDA-MB-231 breast, in the assay with OVCAR-5 ovarian and with SF-268 CNS was over 100 µM each time.
Turning to `CC12CC(c3ccccc3O1)C(C(=O)Nc1ccc(F)cc1)C(=O)N2` (stereo not given), the TGI in the assay on KM12 colon, in the assay on UO-31 renal, in the assay on PC-3 prostate, in the assay with MDA-MB-435, in the assay with OVCAR-4 ovarian and in the assay with SW-620 colon was over 100 µM throughout. Moreover, the concentration for total growth inhibition (TGI) in the assay on OVCAR-5 ovarian, in the assay on MALME-3M melanoma and with SF-268 CNS was over 100 µM in each case.
Turning to `C[N+](C)(C)CC(=O)N/N=c1\cc(C(=O)Nc2ccc(N=O)cc2C#N)oc2cc(O)ccc12`, the TGI with KM12 colon, with UO-31 renal, with OVCAR-4 ovarian, in the assay on SW-620 colon, in the assay on OVCAR-5 ovarian and in the assay with MALME-3M melanoma was over 100 µM each time. This compound displayed a total growth inhibition concentration (TGI) with SF-268 CNS of over 100 µM.
Take `O=C1NC(c2ccc(O)cc2)C2CCC1C2` (stereo not given): the TGI in the assay with KM12 colon, with UO-31 renal, with OVCAR-4 ovarian, with SW-620 colon, with OVCAR-5 ovarian and in the assay with MALME-3M melanoma was over 100 µM in each case. The concentration for total growth inhibition (TGI) in the assay on SF-268 CNS was over 100 µM.
As for `Cc1c(Cl)cccc1NC(=O)C(=O)C1C(=O)CC(C)(C)CC1=O`, the TGI in the assay on KM12 colon, in the assay on UO-31 renal, in the assay on OVCAR-4 ovarian, in the assay with SW-620 colon, with OVCAR-5 ovarian and in the assay on MALME-3M melanoma was over 100 µM each time. In addition, the TGI in the assay with SF-268 CNS is over 100 µM.
For `O=C(/C=C/c1ccccc1)/C=C/c1ccccc1O`, the TGI with KM12 colon amounted to 31.7 µM; in the assay with UO-31 renal, 31.8 µM; in the assay on SW-620 colon, 23.8 µM; with OVCAR-5 ovarian it was 65.3 µM; in the assay on MALME-3M melanoma, 1.83 µM; with SF-268 CNS, 79.4 µM.
Consider `COc1cc(COC(=O)N[C@H](C(=O)O)C(C)(C)C)c([N+](=O)[O-])cc1OC`, for which the TGI in the assay with KM12 colon, in the assay on UO-31 renal, in the assay on PC-3 prostate, with MDA-MB-435, in the assay with SW-620 colon and with OVCAR-5 ovarian was over 100 µM in each case. Also, the TGI in the assay with MALME-3M melanoma and in the assay with SF-268 CNS was over 100 µM in each case.
For `Cc1cn(C2CC(N)C(CN)O2)c(=O)[nH]c1=O` (stereo not given), the TGI with KM12 colon, in the assay on UO-31 renal, with PC-3 prostate, with MDA-MB-435, in the assay with OVCAR-4 ovarian and in the assay on SW-620 colon was over 100 µM each time. Further, the TGI in the assay on OVCAR-5 ovarian, in the assay with MALME-3M melanoma and with SF-268 CNS was over 100 µM each time.
Regarding `Nc1nc2ncc(SCc3ccc(C(=O)NC(CCC(=O)O)C(=O)O)cc3)cc2c(=O)[nH]1` (stereo not given), the TGI in the assay with KM12 colon, with UO-31 renal, in the assay on PC-3 prostate, in the assay on MDA-MB-435, in the assay with OVCAR-4 ovarian and with SW-620 colon was over 100 µM each time. Besides, the TGI in the assay on OVCAR-5 ovarian, in the assay on MALME-3M melanoma and in the assay with SF-268 CNS was over 100 µM in each case.
For the compound `COc1ccc(C2C(Cl)C(=O)N2NC(=O)c2ccc(NC(C)=O)cc2)cc1` (stereo not given), the TGI in the assay on UO-31 renal, in the assay with OVCAR-4 ovarian, in the assay with SW-620 colon, in the assay with OVCAR-5 ovarian, with MALME-3M melanoma and in the assay on SF-268 CNS was over 100 µM in each case.
For `CO[C@@H](C(=O)OC1C=CC2(CC1)C(=O)N(C)c1ccccc12)c1ccccc1` (stereo not given in full), the TGI in the assay on KM12 colon, with UO-31 renal, with PC-3 prostate, in the assay with MDA-MB-435, in the assay on OVCAR-4 ovarian and with SW-620 colon was over 100 µM throughout. In addition, the TGI with MDA-MB-231 breast and in the assay on OVCAR-5 ovarian was over 100 µM throughout.
For the compound `Cc1cc(=O)cc2sc3c(C)cccc3nc1-2`, the TGI was 48.2 µM in the assay on KM12 colon; over 100 µM with UO-31 renal; 30 µM in the assay on OVCAR-4 ovarian; 17.7 µM with SW-620 colon; over 100 µM in the assay with OVCAR-5 ovarian; over 100 µM with MALME-3M melanoma. The compound further registered a concentration for total growth inhibition (TGI) with SF-268 CNS of 26.3 µM.
`Cc1ccccc1C(C#N)C(=O)C(=O)Nc1nc([N+](=O)[O-])cs1` (stereo not given): the TGI in the assay on KM12 colon, in the assay on UO-31 renal, with OVCAR-4 ovarian, in the assay on SW-620 colon, with OVCAR-5 ovarian and in the assay on MALME-3M melanoma was over 100 µM throughout. The compound also came in with a TGI in the assay with SF-268 CNS of over 100 µM.
On to `CCSc1nnc(CSc2nc(-c3ccccc3)c(-c3ccccc3)[nH]2)n1-c1ccccc1`, for which the TGI in the assay on KM12 colon turned out to be 32.1 µM; in the assay on UO-31 renal, 33 µM; in the assay on SW-620 colon, 30.2 µM; in the assay with OVCAR-5 ovarian, 30.4 µM; in the assay with MALME-3M melanoma, 44.2 µM; in the assay on SF-268 CNS, 43.3 µM.
With `COc1ccc(/C(=C/n2ccnc2)C(=O)c2ccc(OC)c(OC)c2)cc1`, the concentration for total growth inhibition (TGI) in the assay with KM12 colon, in the assay on UO-31 renal, in the assay on OVCAR-4 ovarian, with SW-620 colon, with OVCAR-5 ovarian and in the assay on MALME-3M melanoma was over 100 µM in each case. In the assay with SF-268 CNS, the TGI was over 100 µM.
As for `COC1O[C@H]2CCN(C(=O)OCc3ccccc3)[C@H]2[C@H]1OCc1ccccc1` (stereo not given in full), the TGI in the assay with KM12 colon is over 100 µM; with UO-31 renal, 97.7 µM; in the assay with OVCAR-4 ovarian, over 100 µM; with SW-620 colon, over 100 µM; with OVCAR-5 ovarian it was over 100 µM; in the assay on MALME-3M melanoma it was over 100 µM. In the assay with SF-268 CNS, this compound gave a TGI of over 100 µM.
Regarding `CC1C(c2cc(C(C)(C)C)c(O)c(C(C)(C)C)c2)c2cc3c(cc2OC1N1CCOCC1)OCO3` (stereo not given), the TGI was over 100 µM in the assay on KM12 colon; 29.8 µM in the assay on UO-31 renal; 31.6 µM in the assay with PC-3 prostate; 68.2 µM in the assay on MDA-MB-435; over 100 µM in the assay with SW-620 colon; over 100 µM in the assay on OVCAR-5 ovarian. The same compound had a TGI in the assay with SF-268 CNS of 77.3 µM.
For the compound `CCOC(=O)C(OCC1CC=CCC1)Sc1ccccc1` (stereo not given), the TGI in the assay on KM12 colon, in the assay with UO-31 renal, in the assay on SW-620 colon, in the assay on OVCAR-5 ovarian, with MALME-3M melanoma and with SF-268 CNS was over 100 µM each time.
For `COC(=O)c1cc(CC(C)C)c2c(c1)[nH]c1ccccc12`, the TGI in the assay on KM12 colon, in the assay with UO-31 renal, with OVCAR-4 ovarian, in the assay on SW-620 colon, in the assay with OVCAR-5 ovarian and in the assay on MALME-3M melanoma was over 100 µM in each case. This compound gave a TGI with SF-268 CNS of over 100 µM.
As to `CC(C)CC(N)C(=O)OCN1C(=O)C2C3C=CC(C2C1=O)C1C2C(=O)N(COC(=O)C(N)CC(C)C)C(=O)C2C31` (stereo not given), the TGI in the assay on KM12 colon was over 100 µM; in the assay on UO-31 renal, over 100 µM; in the assay with OVCAR-4 ovarian, over 100 µM; in the assay with SW-620 colon, over 75.6 µM; in the assay with OVCAR-5 ovarian it was over 100 µM; in the assay on MALME-3M melanoma, over 100 µM. The same compound yielded a TGI with SF-268 CNS of over 100 µM.
As to `COC(=O)C(C#N)=C1c2ccccc2Oc2ccccc21`, the TGI in the assay with KM12 colon, in the assay on UO-31 renal, in the assay with OVCAR-4 ovarian, with SW-620 colon, in the assay with OVCAR-5 ovarian and in the assay with MALME-3M melanoma was over 100 µM throughout. Besides, in the assay with SF-268 CNS, the TGI was over 100 µM.
As for `COc1ccc(-c2c(C#N)c(N)n(C3OC(CO)C(O)C(O)C3O)c(=S)c2C#N)cc1` (stereo not given), the TGI in the assay with KM12 colon, in the assay on UO-31 renal, in the assay with PC-3 prostate, in the assay with OVCAR-4 ovarian, in the assay on SW-620 colon and in the assay with MDA-MB-231 breast was over 100 µM each time. The TGI in the assay on OVCAR-5 ovarian, in the assay with MALME-3M melanoma and with SF-268 CNS was over 100 µM throughout.
Consider `COc1ccc(Nc2[nH]c(C(C)=O)c(N)c2C(=S)Nc2ccccc2)cc1`, for which the TGI in the assay with KM12 colon, in the assay on UO-31 renal, in the assay with MDA-MB-435, with OVCAR-4 ovarian, in the assay on SW-620 colon and in the assay with MDA-MB-231 breast was over 100 µM throughout. For the same compound, the TGI in the assay with OVCAR-5 ovarian, with MALME-3M melanoma and in the assay on SF-268 CNS was over 100 µM throughout.
In the case of `CC(C)C(Sc1nc(-c2ccccc2)c(-c2ccccc2)[nH]1)C(=O)NNC(=S)Nc1ccccc1` (stereo not given), the concentration for total growth inhibition (TGI) in the assay with KM12 colon is 28.9 µM; in the assay with UO-31 renal, 35.8 µM; in the assay with OVCAR-4 ovarian, 79.2 µM; in the assay with SW-620 colon, 33.1 µM; in the assay with OVCAR-5 ovarian, 32.6 µM; in the assay with MALME-3M melanoma, 33.3 µM. Also, in the assay on SF-268 CNS, the TGI was 46.5 µM.

The values are drawn from PubChem BioAssay (NCI).
